From PMC8040043, “Synthesis, Inhibitory Activity, and In Silico Modeling of Selective COX-1 Inhibitors with a Quinazoline Core” (ACS Medicinal Chemistry Letters, 2021)

Tests used:
[1] = target: T1, human recombinant COX-2 (Homo sapiens, UniProt P35354); experiment: COX-2 in vitro enzymatic assay (PGE2 ELISA); format: biochemical; settings: for inhibition at 20 µM: compound at 20 μM; for inhibition of COX-2 (in words): at 50 μM
T1 construct: purchased Sigma-Aldrich
T1 sequence (P35354 18-604): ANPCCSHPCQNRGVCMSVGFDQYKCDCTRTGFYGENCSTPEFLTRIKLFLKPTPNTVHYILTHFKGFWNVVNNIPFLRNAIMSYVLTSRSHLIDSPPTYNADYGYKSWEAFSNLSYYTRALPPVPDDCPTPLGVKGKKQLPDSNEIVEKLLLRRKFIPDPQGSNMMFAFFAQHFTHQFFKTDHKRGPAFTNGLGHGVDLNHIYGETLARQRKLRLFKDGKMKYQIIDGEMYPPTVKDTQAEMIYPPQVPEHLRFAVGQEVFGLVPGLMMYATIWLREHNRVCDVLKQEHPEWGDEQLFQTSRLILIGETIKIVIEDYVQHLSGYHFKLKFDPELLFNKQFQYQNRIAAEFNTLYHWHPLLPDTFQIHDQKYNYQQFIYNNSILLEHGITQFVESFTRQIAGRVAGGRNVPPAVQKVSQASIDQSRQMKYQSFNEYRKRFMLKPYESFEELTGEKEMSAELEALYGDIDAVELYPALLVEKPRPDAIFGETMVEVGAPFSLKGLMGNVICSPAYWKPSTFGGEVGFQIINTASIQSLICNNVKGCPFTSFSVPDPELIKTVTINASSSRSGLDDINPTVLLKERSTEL
Experimental: (§1) The inhibitory activity of compounds was tested using in vitro enzymatic assay. Ovine COX-1 (1 unit/reaction) or human recombinant COX-2 (0.5 unit/reaction; both enzymes Sigma-Aldrich, USA) was added to 180 µL of 100 mM Tris buffer (pH 8.0), containing 5 μM porcine hematin, 18 mM L-epinephrine, and 50 μM Na2EDTA. Ten µL of tested compound dissolved in DMSO or pure DMSO (as a blank) were added to the reaction.
(§2) Sigma-Aldrich, USA) was used as a reference inhibitor. After 5 min incubation at room temperature, reaction was initiated by 5 µL of arachidonic acid (10 µM) and incubated 20 min in 37°C. Then the reaction was stopped by 20 µL of formic acid (10% v/v). The concentration of prostaglandin E2 (PGE2) was measured with Prostaglandin E2 ELISA kit (Enzo Life Sciences, USA). Reaction mixture was diluted 1:15 in assay buffer (provided in the kit) and incubated according to the manufacturer instructions.
(§3) The concentration of PGE2 produced during the reaction was estimated according to absorbance […]
(§4) inhibitory activity was calculated as percentual inhibition of PGE2 production compared to blank. At first, the inhibitory activity of compounds was tested at 20 µM to see if there is any activity. IC50 […]
(§5) of COX-2. The level of percentual inhibition was chosen based on the percentual inhibition caused by […]
(§6) All the experiments were carried out in duplicates and repeated at least two times. To test whether increasing substrate concentration influences the activity of […]
(§7) reference compound. The inhibitory activity was calculated as percentual inhibition of PGE2 production compared to blank with respective concentration of AA. […]

[2] = target: T2, Ovine COX-1 (Ovis aries, UniProt P05979); experiment: COX-1 in vitro enzymatic assay (PGE2 ELISA); format: biochemical; settings: for inhibition at 20 µM: compound at 20 μM; for inhibitory activity in COX assays (in words): less than 50% inhibition on both COX isoforms considered inactive
T2 construct: purchased Sigma-Aldrich
T2 sequence (P05979 25-600): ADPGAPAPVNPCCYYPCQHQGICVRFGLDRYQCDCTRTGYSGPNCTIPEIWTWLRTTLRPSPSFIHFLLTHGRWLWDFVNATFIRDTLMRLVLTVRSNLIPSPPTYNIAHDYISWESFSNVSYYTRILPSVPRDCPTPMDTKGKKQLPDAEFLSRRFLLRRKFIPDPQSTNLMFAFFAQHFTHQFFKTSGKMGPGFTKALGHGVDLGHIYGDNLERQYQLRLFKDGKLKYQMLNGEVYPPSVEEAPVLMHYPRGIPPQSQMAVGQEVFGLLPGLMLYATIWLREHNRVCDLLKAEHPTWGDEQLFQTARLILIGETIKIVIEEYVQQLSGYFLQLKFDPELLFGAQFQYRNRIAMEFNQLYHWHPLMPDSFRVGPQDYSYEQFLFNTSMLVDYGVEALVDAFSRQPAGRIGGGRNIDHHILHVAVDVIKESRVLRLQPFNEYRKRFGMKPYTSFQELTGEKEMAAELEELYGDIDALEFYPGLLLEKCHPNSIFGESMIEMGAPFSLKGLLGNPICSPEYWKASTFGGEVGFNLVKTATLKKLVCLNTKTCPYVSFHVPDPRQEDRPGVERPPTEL
Experimental: as §1, §2, §3, §4, §5, §6, §7

Structure (SMILES)	inhibition at 20 µM [1] [%]	inhibition at 20 µM [2] [%]	also measured
Cc1ccc(Nc2nc(/C=C/c3ccccc3)nc3ccccc23)cc1C [3a]	-38.7	50.5	–
Cc1ccc(Nc2nc(/C=C/c3ccccc3)nc3ccccc23)cc1 [3b]	3.54	95.2	IC50 [1]: 43 ± 10.3 µM
COc1ccc(Nc2nc(/C=C/c3ccccc3)nc3ccccc23)cc1 [3c]	2.64	95.3	IC50 [1]: 37.3 ± 9.36 µM
C(=C\c1nc(N2CCNCC2)c2ccccc2n1)/c1ccccc1 [3d]	-4.94	31.2	–
CCOC(=O)c1ccc(Nc2nc(/C=C/c3ccccc3)nc3ccccc23)cc1 [3e]	-16.3	6.76	–
Fc1ccc(Nc2nc(/C=C/c3ccccc3)nc3ccccc23)cc1F [3f]	-14.5	27.6	–
O=[N+]([O-])c1ccc(Nc2nc(/C=C/c3ccccc3)nc3ccccc23)cc1 [3g]	-24.4	13.7	–
C(=C\c1nc(Nc2cccc3cccnc23)c2ccccc2n1)/c1ccccc1 [3h]	3.02	31.5	–
C(=C\c1nc(Nc2ccccn2)c2ccccc2n1)/c1ccccc1 [3i]	-11.1	17.7	–
Cc1cc(Nc2nc(/C=C/c3ccccc3)nc3ccccc23)n[nH]1 [3j]	13.8	41.6	–
Fc1ccc(CNc2nc(/C=C/c3ccccc3)nc3ccccc23)cc1F [3k]	71.8	96.8	IC50 [1]: 10.1 ± 1.38 µM; IC50 [2]: 1.9 ± 0.69 µM; selectivity index (COX-2/COX-1) ([2]; ratio of IC50 COX-2 / IC50 COX-1): 5.32
COC(=O)CCNc1nc(/C=C/c2ccccc2)nc2ccccc12 [3l]	14.9	46.2	–
CC(C)(C)c1ccc(Nc2nc(/C=C/c3ccccc3)nc3ccccc23)cc1 [3m]	9.92	14	–
CCCCc1ccc(Nc2nc(/C=C/c3ccccc3)nc3ccccc23)cc1 [3n]	5.59	12.8	–
CCCOc1ccc(Nc2nc(/C=C/c3ccccc3)nc3ccccc23)cc1 [3o]	-4.79	7.33	–
Cc1cc(C)c(Nc2nc(/C=C/c3ccccc3)nc3ccccc23)c(C)c1 [3p]	-22.9	38	–
Fc1cc(F)c(Nc2nc(/C=C/c3ccccc3)nc3ccccc23)c(F)c1 [3q]	12.6	24.9	–
Cc1cc(F)cc(Br)c1Nc1nc(/C=C/c2ccccc2)nc2ccccc12 [3r]	-1.77	30.6	–
COc1cc(Nc2nc(/C=C/c3ccccc3)nc3ccccc23)cc(OC)c1 [3s]	-14.1	23.1	–
FC(F)(F)c1cc(Nc2nc(/C=C/c3ccccc3)nc3ccccc23)cc(C(F)(F)F)c1 [3t]	10.8	20.8	–

Structure (SMILES)	inhibition at 20 µM [1] [%]	inhibition at 20 µM [2] [%]	also measured
FC(F)(F)c1ccc(Nc2nc(/C=C/c3ccccc3)nc3ccccc23)cc1 [3u]	16.4	16.8	–
Nc1ccc(Oc2nc(/C=C/c3ccccc3)nc3ccccc23)cc1 [3v]	3.5	94.3	IC50 [1]: > 50 µM; inhibition of COX-2 (in words) [1]: did not inhibit
COc1ccc(CNc2nc(Cl)nc3cc(Br)ccc23)cc1 [5a]	22.7	48.8	–
Fc1ccc(CNc2nc(Cl)nc3cc(Br)ccc23)cc1F [5b]	30.6	30.4	–
COc1ccc(CNc2nc(Cl)nc3cc(-c4ccc(OC)cc4)ccc23)cc1 [6a]	7.04	34.1	–
COc1ccc(CNc2nc(Cl)nc3cc(-c4ccc(F)cc4)ccc23)cc1 [6b]	27.6	26.6	–
COc1ccc(CNc2nc(Cl)nc3cc(-c4cccs4)ccc23)cc1 [6c]	32.3	92.4	IC50 [1]: > 50 µM; inhibition of COX-2 (in words) [1]: did not inhibit
COc1ccc(-c2ccc3c(NCc4ccc(F)c(F)c4)nc(Cl)nc3c2)cc1 [6d]	26.5	31.6	–
Fc1ccc(CNc2nc(Cl)nc3cc(-c4cccs4)ccc23)cc1F [6e]	39.9	96.5	IC50 [1]: > 50 µM; inhibition of COX-2 (in words) [1]: did not inhibit
COc1ccc(CNc2nc(N3CCOCC3)nc3cc(-c4ccc(OC)cc4)ccc23)cc1 [7a]	0.8	-3.35	–
COc1ccc(CNc2nc(N3CCCC3)nc3cc(-c4ccc(OC)cc4)ccc23)cc1 [7b]	19.4	6.91	–
COc1ccc(CNc2nc(N3CCNCC3)nc3cc(-c4ccc(OC)cc4)ccc23)cc1 [7c]	24.2	-16.5	–
CCN(CC)c1nc(NCc2ccc(OC)cc2)c2ccc(-c3ccc(OC)cc3)cc2n1 [7d]	-1.39	-10.9	–
COc1ccc(CNc2nc(N3CCOCC3)nc3cc(-c4ccc(F)cc4)ccc23)cc1 [7e]	-7.39	-5.92	–
COc1ccc(CNc2nc(N3CCCC3)nc3cc(-c4ccc(F)cc4)ccc23)cc1 [7f]	3.22	32.1	–
COc1ccc(CNc2nc(N3CCNCC3)nc3cc(-c4ccc(F)cc4)ccc23)cc1 [7g]	-10.1	-13.9	–
CCN(CC)c1nc(NCc2ccc(OC)cc2)c2ccc(-c3ccc(F)cc3)cc2n1 [7h]	4.43	-1.12	–
COc1ccc(CNc2nc(N3CCOCC3)nc3cc(-c4cccs4)ccc23)cc1 [7i]	-5.36	14.8	inhibitory activity in COX assays (in words) [2]: inactive
COc1ccc(CNc2nc(N3CCCC3)nc3cc(-c4cccs4)ccc23)cc1 [7j]	-2.17	-38.1	inhibitory activity in COX assays (in words) [2]: inactive
COc1ccc(-c2ccc3c(NCc4ccc(F)c(F)c4)nc(N4CCOCC4)nc3c2)cc1 [7k]	7.98	6.66	–
